Source: patent publication US20200172483A1, “HETEROCYCLIC SMALL MOLECULE MODULATORS OF HUMAN STING” (Curadev Pharma Limited, priority 2017, published 2020)

Molecular target: T1, WT/R232 STING protein (Homo sapiens, UniProt Q86WV6, H232R)
T1 construct: host or cells: HEK293T
Assay: Luciferase reporter assay in HEK293T-hSTING-Luciferase cells (R232)
Assay type: cell-based
Conditions: 20 hr stimulation, EC50 range
Source text: • a) Stable STING expressing cells—Stable HEK293T STING-expressing cell lines were generated using plasmids purchased from Invivogen, CA, USA, that contain STING cDNA cloned into the pUNO-1 vector under hEF1-HTLV promoter and containing the Blasticidin selection cassette. The plasmids hSTING (R232), hSTING (H232), hSTING (HAQ) were directly procured from Invivogen while hSTING (AQ) and hSTING (Q) were derived from hSTING (HAQ) and hSTING (R232) plasmids respectively by using a PCR based site directed mutagenesis method. These vectors were individually transfected into HEK293T cells using Lipofectamine (Invitrogen) and transfected cells were selected under Blasticidin selection. These transfected cells were further subjected to clonal selection using the limiting dilution method to obtain clonally pure populations of HEK cells transfected with each of the above mentioned human STING variants. Only those clones were selected in which ligand independent activation of STING was minimal. • b) Stable Luciferase reporter gene expressing cells—Stable HEK293T Luciferase reporter gene expressing cell lines were generated using pCDNA4 plasmids under an IRF-inducible promoter. This promoter is comprised of five tandem interferon-stimulated response elements (ISRE) fused to an ISG54 minimal promoter. This vector was transfected into HEK293T cells using Lipofectamine (Invitrogen) and transfected cells were selected under Zeocin selection. These transfected cells were further subjected to clonal selection using the limiting dilution method to obtain clonally pure populations of HEK cells transfected the Luciferase reporter construct. Only those clones were selected in which ligand independent induction of luciferase was minimal.
5×10^5 clonally selected HEK293T-hSTING-Luciferase cells were seeded in 384-well plates in growth medium and stimulated with novel compounds. After 20 hr of stimulation supernatant were removed and secretary reporter gene activity were measured using the Quanti-Luc detection system (Invivogen) on a Spectramax i3X luminometer.
All compounds were first tested in a primary screen using WT/R232 STING protein to obtain a ‘fold-induction’ over baseline levels of protein activity.

T1 sequence (Q86WV6 whole entry H232R): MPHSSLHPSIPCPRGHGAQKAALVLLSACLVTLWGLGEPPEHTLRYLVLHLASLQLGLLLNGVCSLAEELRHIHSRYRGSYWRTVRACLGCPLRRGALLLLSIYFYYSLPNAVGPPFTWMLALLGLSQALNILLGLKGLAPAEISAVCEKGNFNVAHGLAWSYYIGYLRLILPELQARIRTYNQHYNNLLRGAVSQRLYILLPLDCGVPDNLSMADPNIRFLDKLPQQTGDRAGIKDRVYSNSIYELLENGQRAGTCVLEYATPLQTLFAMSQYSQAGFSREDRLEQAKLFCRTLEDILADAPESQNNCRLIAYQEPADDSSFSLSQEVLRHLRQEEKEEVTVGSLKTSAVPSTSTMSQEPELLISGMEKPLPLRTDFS

Compared with `CC1(C)C(=O)N(Cc2nc3ccccc3o2)c2cc(C(=O)NCc3c(F)cc(F)cc3F)ccc21` [Example 101, 1-(benzo[d]oxazol-2-ylmethyl)-3,3-dimethyl-2-oxo-N-(2,4,6-trifluorobenzyl)indoline-6-carboxamide], `CC1(C)C(=O)N(Cc2ccncc2)c2cc(C(=O)NCc3c(F)cc(F)cc3F)ccc21` [Example 22, 3,3-dimethyl-2-oxo-1-(pyridin-4-ylmethyl)-N-(2,4,6-trifluorobenzyl)indoline-6-carboxamide] is lower in EC50: over 10 µM for the first, 1 to 10 µM for the second. The second is the more potent here.

`CC1(C)C(=O)N(Cc2ccnc(F)c2)c2cc(C(=O)NCc3c(F)cc(F)cc3F)ccc21` [Example 49, 1-((2-fluoropyridin-4-yl)methyl)-3,3-dimethyl-2-oxo-N-(2,4,6-trifluorobenzyl)indoline-6-carboxamide] and `Cn1cc(CN2C(=O)C(C)(C)c3ccc(C(=O)NCc4c(F)cc(F)cc4F)cc32)cn1` [Example 68, 3,3-dimethyl-1-((1-methyl-1H-pyrazol-4-yl)methyl)-2-oxo-N-(2,4,6-trifluorobenzyl)indoline-6-carboxamide] fall in the same range of EC50: 1 to 10 µM for the first, 1 to 10 µM for the second.

Compared with `CC1(N)C(=O)N(Cc2ccccc2F)c2cc(C(=O)NCc3c(F)cc(F)cc3F)ccc21` (stereo not drawn) [Example 154, 3-amino-1-(2-fluorobenzyl)-3-methyl-2-oxo-N-(2,4,6-trifluorobenzyl)indoline-6-carboxamide], `CC1(C)C(=O)N(Cc2ccc(C(N)=O)cc2F)c2cc(C(=O)NCc3c(F)cc(F)cc3F)ccc21` [Example 121, 1-(4-carbamoyl-2-fluorobenzyl)-3,3-dimethyl-2-oxo-N-(2,4,6-trifluorobenzyl)indoline-6-carboxamide] is lower in EC50: over 10 µM for the first, 1 to 10 µM for the second.

First: CC1(F)C(=O)N(Cc2cc(F)cc(F)c2)c2cc(C(=O)NCc3c(F)cc(F)cc3F)ccc21 (stereo not drawn) [Example 150, 1-(3,5-difluorobenzyl)-3-fluoro-3-methyl-2-oxo-N-(2,4,6-trifluorobenzyl)indoline-6-carboxamide]
Second: CC1(CN)C(=O)N(Cc2cc(F)cc(F)c2)c2cc(C(=O)NCc3c(F)cc(F)cc3F)ccc21 (stereo not drawn) [Example 172, 3-(aminomethyl)-1-(3,5-difluorobenzyl)-3-methyl-2-oxo-N-(2,4,6-trifluorobenzyl)indoline-6-carboxamide]
The EC50 of the first is lower: 1 to 10 µM for the first, over 10 µM for the second.

First: CC1(C)C(=O)N(Cc2cc(F)cc(F)c2)c2cc(C(=O)NCc3c(F)cc(F)cc3F)cnc21 [Example 179, 1-(3,5-Difluorobenzyl)-3,3-dimethyl-2-oxo-N-(2,4,6-trifluorobenzyl)-2,3-dihydro-1H-pyrrolo[3,2-b]pyridine-6-carboxamide]
Second: CC1(C)C(=O)N(Cc2cc(F)cc(F)c2)c2cc(C(=O)NCc3c(F)cc(F)cc3F)ncc21 [Example 186, 1-(3,5-difluorobenzyl)-3,3-dimethyl-2-oxo-N-(2,4,6-trifluorobenzyl)-2,3-dihydro-1H-pyrrolo[3,2-c]pyridine-6-carboxamide]
The EC50 of the first is lower: 1 to 10 µM for the first, over 10 µM for the second. The first is the more potent here.

`CC1(C)C(=O)N(Cc2cc(F)cc(F)c2)c2c1ccc(C(=O)NCc1c(F)cc(F)cc1F)c2F` [Example 35, 1-(3,5-difluorobenzyl)-7-fluoro-3,3-dimethyl-2-oxo-N-(2,4,6-trifluorobenzyl)indoline-6-carboxamide] and `CC1(C)C(=O)N(Cc2cc(F)cc(F)c2)c2c1ccc(C(=O)NCc1cc3ccccc3o1)c2F` [Example 34, N-(benzofuran-2-ylmethyl)-1-(3,5-difluorobenzyl)-7-fluoro-3,3-dimethyl-2-oxoindoline-6-carboxamide] cannot be ordered by EC50: over 10 µM for the first, over 10 µM for the second.

`Cc1cc(CN2C(=O)C(C)(C)c3ccc(C(=O)NCc4c(F)cc(F)cc4F)cc32)on1` [Example 52, 3,3-dimethyl-1-((3-methylisoxazol-5-yl)methyl)-2-oxo-N-(2,4,6-trifluorobenzyl)indoline-6-carboxamide] and `Cc1nn(C)cc1CN1C(=O)C(C)(C)c2ccc(C(=O)NCc3c(F)cc(F)cc3F)cc21` [Example 80, 1-((1,3-dimethyl-1H-pyrazol-4-yl)methyl)-3,3-dimethyl-2-oxo-N-(2,4,6-trifluorobenzyl)indoline-6-carboxamide] cannot be ordered by EC50: over 10 µM for the first, over 10 µM for the second.

`COc1cc(F)c(CN2C(=O)C(C)(C)c3ccc(C(=O)NCc4c(F)cc(F)cc4F)cc32)c(F)c1` [Example 64, 1-(2,6-difluoro-4-methoxybenzyl)-3,3-dimethyl-2-oxo-N-(2,4,6-trifluorobenzyl)indoline-6-carboxamide] and `COc1ccc(F)c(CN2C(=O)C(C)(C)c3ccc(C(=O)NCc4c(F)cc(F)cc4F)cc32)c1Cl` [Example 66, 1-(2-chloro-6-fluoro-3-methoxybenzyl)-3,3-dimethyl-2-oxo-N-(2,4,6-trifluorobenzyl)indoline-6-carboxamide] cannot be ordered by EC50: at most 1 µM for the first, at most 1 µM for the second.

`CC1(C)C(=O)N(Cc2cccc3c2OC(F)(F)O3)c2cc(C(=O)NCc3c(F)cc(F)cc3F)ccc21` [Example 105, 1-((2,2-difluorobenzo[d][1,3]dioxol-4-yl)methyl)-3,3-dimethyl-2-oxo-N-(2,4,6-trifluorobenzyl)indoline-6-carboxamide] and `CC1(C)C(=O)N(Cc2c(F)cccc2C(F)(F)F)c2cc(C(=O)NCc3c(F)cc(F)cc3F)ccc21` [Example 84, 1-(2-fluoro-6-(trifluoromethyl)benzyl)-3,3-dimethyl-2-oxo-N-(2,4,6-trifluorobenzyl)indoline-6-carboxamide] fall in the same range of EC50: 1 to 10 µM for the first, 1 to 10 µM for the second.

`CCC1(O)C(=O)N(Cc2c(F)cccc2Cl)c2cc(C(=O)NCc3c(F)cc(F)cc3F)ccc21` (stereo not drawn) [Example 158, 1-(2-chloro-6-fluorobenzyl)-3-ethyl-3-hydroxy-2-oxo-N-(2,4,6-trifluorobenzyl)indoline-6-carboxamide] and `O=C(NCc1c(F)cc(F)cc1F)c1ccc2c(c1)N(Cc1c(F)cccc1Cl)C(=O)C2(Cl)c1ccccc1` (stereo not drawn) [Example 156, 3-chloro-1-(2-chloro-6-fluorobenzyl)-2-oxo-3-phenyl-N-(2,4,6-trifluorobenzyl)indoline-6-carboxamide] cannot be ordered by EC50: over 10 µM for the first, over 10 µM for the second.

`CC1(C)C(=O)N(Cc2cc(F)cc(F)c2)c2cc(C(=O)NCC3CCC(F)(F)CC3)ccc21` [Example 43, 1-(3,5-difluorobenzyl)-N-((4,4-difluorocyclohexyl)methyl)-3,3-dimethyl-2-oxoindoline-6-carboxamide] and `Cc1ccc(CN2C(=O)C(C)(C)c3ccc(C(=O)NCc4cc(F)cc(F)c4)cc32)o1` [Example 125, N-(3,5-difluorobenzyl)-3,3-dimethyl-1-((5-methylfuran-2-yl)methyl)-2-oxoindoline-6-carboxamide] cannot be ordered by EC50: over 10 µM for the first, over 10 µM for the second.

Compared with `Cc1cccc(F)c1CN1C(=O)C(C)(C)c2ncc(C(=O)NCc3ccc(F)cc3)cc21` [Example 197, 1-(2-fluoro-6-methylbenzyl)-N-(4-fluorobenzyl)-3,3-dimethyl-2-oxo-2,3-dihydro-1H-pyrrolo[3,2-b]pyridine-6-carboxamide], `CC1(C)C(=O)N(Cc2cc(F)cc(F)c2)c2cc(C(=O)NCc3ccc(F)cc3F)cnc21` [Example 199, N-(2,4-difluorobenzyl)-1-(3,5-difluorobenzyl)-3,3-dimethyl-2-oxo-2,3-dihydro-1H-pyrrolo[3,2-b]pyridine-6-carboxamide] is lower in EC50: over 10 µM for the first, 1 to 10 µM for the second. The second is the more potent here.

`Cc1cc(CN2C(=O)C(C)(C)c3ccc(C(=O)NCc4cc5ccccc5o4)nc32)ccn1` [Example 183, N-(benzofuran-2-ylmethyl)-3,3-dimethyl-1-((2-methylpyridin-4-yl)methyl)-2-oxo-2,3-dihydro-1H-pyrrolo[2,3-b]pyridine-6-carboxamide] and `Cc1ccc(CNC(=O)c2ccc3c(c2)N(Cc2ccccc2Cl)C(=O)C3(C)C)o1` [Example 51, 1-(2-chlorobenzyl)-3,3-dimethyl-N-((5-methylfuran-2-yl)methyl)-2-oxoindoline-6-carboxamide] fall in the same range of EC50: 1 to 10 µM for the first, 1 to 10 µM for the second.

`CC1(C)C(=O)N(Cc2c(F)cccc2Cl)c2cc(C(=O)NCc3ccc4c(c3)OCO4)ccc21` [Example 86, N-(benzo[d][1,3]dioxol-5-ylmethyl)-1-(2-chloro-6-fluorobenzyl)-3,3-dimethyl-2-oxoindoline-6-carboxamide] and `CC1(C)C(=O)N(Cc2ccc(F)cc2)c2cc(C(=O)NCc3ccco3)ccc21` [Example 41, 1-(4-fluorobenzyl)-N-(furan-2-ylmethyl)-3,3-dimethyl-2-oxoindoline-6-carboxamide] fall in the same range of EC50: 1 to 10 µM for the first, 1 to 10 µM for the second.

First: Cn1nc(C(F)(F)F)cc1CN1C(=O)C(C)(C)c2ccc(C(=O)NCc3c(F)cc(F)cc3F)cc21 [Example 113, 3,3-dimethyl-1-((1-methyl-3-(trifluoromethyl)-1H-pyrazol-5-yl)methyl)-2-oxo-N-(2,4,6-trifluorobenzyl)indoline-6-carboxamide]
Second: Cc1ccc(CNC(=O)c2ccc3c(c2)N(CC(=O)c2ccccc2)C(=O)C3(C)C)o1 [Example 62, 3,3-dimethyl-N-((5-methylfuran-2-yl)methyl)-2-oxo-1-(2-oxo-2-phenylethyl)indoline-6-carboxamide]
The EC50 of the first is lower: 1 to 10 µM for the first, over 10 µM for the second. The first is the more potent here.
